Where a name gives a salt, the structure may show the parent alone.

Data set [1] is described as follows: In vitro release, plasma free system (dialysis bag in PBS). It is filed as physicochemical. Conditions: PBS pH 7.4, 37 °C, within 2 hours. How it is done: (§1) Two in vitro release systems were used in this study, the first system was the plasma free environment and the second system was the human plasma environment. To set up the first in vitro release system, 1.0 mL of liposomal rivastigmine formulation prepared according to Example 1 and 1.0 mL of free rivastigmine tartrate were placed in separate dialysis bags (Spectra/Pro*6 dialysis membrane, MWCO 50 kDa, Spectrum Labs) and both ends of the dialysis bags were sealed. To set up the second in vitro release system, 1.0 mL of liposomal rivastigmine formulation prepared according to Example 1 and 1.0 mL of free rivastigmine tartrate were placed in separate dialysis bags, each containing 1 mL of human plasma (Valley Biomedical, Inc.) and both ends of the dialysis bags were sealed. Each dialysis bag was immersed in 25 mL PBS at pH 7.4 in a 50-mL centrifuge tube and incubated in a water bath at 37±1° C. for 24 hours. At designated time points after incubation (1, 2, 4, 6 and 24 hours), 0.5 mL aliquot from the 25-mL PBS was sampled and 0.5 mL of fresh PBS was added to replace the sampling aliquot. Drug concentrations of the sampling aliquots at each time point were analyzed using high performance liquid chromatography (HPLC) to create the in vitro release profile.

A short description of data set [2]: In vitro release, human plasma system (dialysis bag in PBS). In kind it is in vitro ADME. Conditions: 37 °C, within 4 hours. How it is done: as §1
Data set [3] is described as follows: PK study of liposomal rivastigmine in rats, subcutaneous injection. In kind it is in vivo, Sprague-Dawley rats. How it is done: An in vivo PK evaluation of the liposomal rivastigmine formulation was performed using 7-8 weeks old female Sprague-Dawley rats. The rats were housed in a holding room which operated on a 12-hr light/12-hr dark circadian cycle with free access to water and food.
The rats were divided into two groups (n=3 in each group), one group received subcutaneous injection of 10 mg/kg of free rivastigmine tartrate, prepared by dissolving rivastigmine tartrate in ultrapure water with a final concentration of 2 mg/mL. The other group received subcutaneous injection of 10 mg/kg of liposomal rivastigmine tartrate, prepared according to Example 1. Blood samples were collected at 15 min, 1, 2, 4, 6, 8, 24, 48, and 72 hours post-injection. Plasma samples were obtained by centrifugation, kept frozen at −80° C. and analyzed using a noncompartmental analysis model in PKSolver (Comput Methods Programs Biomed. 2010; 99(3):306-314).

Setting [4] is: female, Sprague-Dawley, rat, plasma, sc, single subcutaneous injection 10 mg/kg.

In the case of `CCN(C)C(=O)Oc1cccc([C@H](C)N(C)C)c1` [Free Rivastigmine, rivastigmine tartrate], the “rivastigmine released through the dialysis bag” value in data set [1] is given as “one hundred”. In data set [2], the rivastigmine released turned out to be 90%. Moreover, in data set [3] (8 hours post injection, FIG. 2), the rivastigmine in plasma entry was “undetectable”. Also, the “rivastigmine released as indicated by AUC0-t” value in data set [3] (72 hours post-injection) is 100%. Further, in data set [3] (setting [4]), the area under the curve AUC(0-inf) stood at 899 ng·h/mL, the area under the curve AUC(0-t) was 896 ng·h/mL and the peak level (Cmax) was 427 ng/mL. The half-life in data set [3] (female, Sprague-Dawley, rat, plasma, sc, single subcutaneous injection 10 mg/kg, read-out: t½ (converted)) is 55.8 min.
